We go through four molecules from patent publication US10039724B2, “7-hydroxy cannabidiol (7-OH-CBD) for use in the treatment of non-alcoholic fatty liver disease (NAFLD)” (GW Pharma Limited, priority 2014, dated 2018).

Each structure is given as a SMILES string.

The test system of series [1] is 3T3-L1-derived mature adipocytes. As to the kind of experiment: Intracellular triglyceride levels (AdipoRed) in 3T3-L1-derived mature adipocytes. In kind it is cell-based. The conditions noted are these: for intracellular lipid stores, AdipoRed staining: mature 3T3-L1-derived adipocytes treated for 48 hours. As to the method:
(§1) HHL-5 cells were cultured in standard growth media (DMEM [Lonza] supplemented with 10% FBS [Lonza], NEAA [Gibco] and Pen.Strep [Gibco]). 3T3-L1 cells were cultured in growth media (GM; DMEM [Lonza] low NaHCO3 (1.5 g/l), supplemented with 10% FBS [Lonza] and pen./strep. [Gibco]).
In order to induce adipogenesis cells were grown to 100% confluence and then switched to differentiation media (DMEM [Lonza] supplemented with a specific lot of 10% FBS [Lonza], 1 ug/ml Insulin (Sigma), 250 nM Dexamethasone (Sigma), 500 uM MIX (Sigma) and pen./strep. [Gibco]) for 2 days, followed by incubation in DMEM [Lonza] supplemented with a specific lot of 10% FBS [Lonza], 1 ug/ml Insulin (Sigma) and pen./strep. [Gibco] until day 7-10 at which point mature adipocytes are treated with cannabinoids at the indicated concentrations.
(§2) 3T3-L1 cells were plated in 100 mm plates and differentiated as above to obtain mature adipocytes, at which point they were re-plated into 96-well plates and then treated with the indicated concentrations of cannabinoids for 2 days. Cells were then washed with PBS and stained with AdipoRed (Lonza) and read with a Genios Pro Plate reader (Tecan) according to the manufacturer's instructions.

Series [2] deals with HHL5 cells. As to the kind of experiment: Intracellular triglyceride levels (AdipoRed) in oleic acid-treated HHL5 cells, in vitro model of fatty liver disease. To be noted: for intracellular lipid (triglyceride) levels, AdipoRed staining: HHL5 cells co-incubated with 100 uM oleic acid and compound for 24 hr. It is filed as cell-based. As to the method: as §1
(§3) HHL5 cells seeded in 96-well plates were grown to 90% confluence and then treated with 100 uM oleic acid (OA) or DMSO (−) for 24 hours in the absence or presence of cannabinoids at the indicated concentrations.
as §2
HHL5 hepatocytes that have been treated with oleic acid to induce intracellular lipid accumulation are a useful in vitro model for fatty liver disease.

Series [3] has as its system 3T3-L1-derived mature adipocytes. As to the kind of experiment: MTT cell viability assay in 3T3-L1-derived mature adipocytes. In kind it is cell-based. To be noted: mature 3T3-L1-derived adipocytes. As to the method: as §2
(§4) MTT (3-[4,5-dimethyltiazol-2yl]-2,5 diphenyltetrazolium bromide) (5 mg/ml differentiation media) was added to cells treated as described above, and cells were incubated for additional 1 h at 37 C.
(§5) Cells were then washed in PBS and dried before the addition of 100 ul of isopropanol to dissolve the formazan precipitate. The OD of each well was measured with a Genios-Pro plate reader (Tecan) equipped with a 620-nm filter.

Series [4] has as its system HHL5 cells. The series is described as follows: MTT cell viability assay in HHL5 cells. It is filed as cell-based. To be noted: HHL5 cells treated in parallel. As to the method:
as §3, §4, §5

Series [5] has as its system HHL5 cells. The conditions noted are these: Wargent et al., 2013; cited from earlier work.

On to `C=C(C)[C@@H]1CCC(CO)=C[C@H]1c1c(O)cc(CCCCC)cc1O` [7-OH-CBD, 7-hydroxy-cannabidiol], for which, in series [1] (mature 3T3-L1-derived adipocytes), the “efficacy in reducing Adipored staining compared with CBD” value is listed as “more efficacious than CBD at reducing Adipored staining”. In series [1], the “intracellular lipid stores, AdipoRed staining” value (shortened to “intracellular lipid stores”) is recorded as “dose-dependently decreased intracellular lipid stores”. The “intracellular lipid (triglyceride) levels, AdipoRed staining” value in the series on HHL5 cells [2] was “effective at lowering TG levels”. Moreover, in the series with HHL5 cells [2] (HHL5 cells, 100 uM oleic acid, 24 hr), the “potency in lowering TG levels compared with parent compound CBD” value is on record as “even more potent that its parent compound CBD”. Also, the “effect on cellular viability (MTT assay)” value in series [3] was “not associated with any apparent effect on cellular viability”. The “toxicity (cell viability, MTT assay)” value with HHL5 cells [4] was “neither 11-OH-THCV or 7-OH-CBD were found to be toxic”.
Turning to `CCCc1cc(O)c2c(c1)OC(C)(C)[C@@H]1CCC(CO)=C[C@@H]21` [11-OH-THCV, 11-hydroxy-tetrahydrocannabivarin], the “intracellular lipid stores” value in series [1] is on record as “had no effect”. Moreover, the “intracellular lipid (triglyceride) levels, AdipoRed staining” value with HHL5 cells [2] is given as “devoid of lipid lowering activity”. For the same molecule, the “effect on cellular viability (MTT assay)” value in series [3] is listed as “not associated with any apparent effect on cellular viability”. The “toxicity (cell viability, MTT assay)” value in the series on HHL5 cells [4] is listed as “neither 11-OH-THCV or 7-OH-CBD were found to be toxic”.
Turning to `C=C(C)[C@@H]1CCC(C)=C[C@H]1c1c(O)cc(CCCCC)cc1O` [CBD, Cannabidiol], in series [1], the “intracellular lipid stores” value was “dose-dependently decreased intracellular lipid stores”. Also, the “intracellular lipid (triglyceride) levels, AdipoRed staining” value in the series on HHL5 cells [2] was “dose-dependently lowered intracellular lipid levels”. Further, the “effect on cellular viability (MTT assay)” value in series [3] is “not associated with any apparent effect on cellular viability”. The “toxicity (cell viability, MTT assay)” value in the series with HHL5 cells [4] (up to 20 uM) was “no toxicity was found”.
`CCCc1cc(O)c2c(c1)OC(C)(C)[C@@H]1CCC(C)=C[C@@H]21` [THCV, Tetrahydrocannabivarin]: the “triglyceride (TG) levels in HHL-5 cells treated with oleic acid” value in the series with HHL5 cells [5] is listed as “able to reduce triglyceride (TG) levels in a time dependent manner”. The “intracellular lipid stores” value in series [1] is recorded as “dose-dependently decreased intracellular lipid stores”. The “intracellular lipid (triglyceride) levels, AdipoRed staining” value with HHL5 cells [2] was “dose-dependently lowered intracellular lipid levels”. In series [3], the “effect on cellular viability (MTT assay)” value is on record as “not associated with any apparent effect on cellular viability”. In addition, the “toxicity (cell viability, MTT assay)” value in the series with HHL5 cells [4] (up to 20 uM) is reported as “no toxicity was found”.
